Key:
[1] = test system: caspase 3; assay: Quantification of caspase 3 in adipocytes by Western blotting and densitometry; format: cell-based, human
Procedure: (§1) Quantification of Apoptotic Factors (cytocrome c, caspase 3 and 9)
(§2) Adipocytes have been collected both manually using a “Luer-lock” 10 cc. syringe following Coleman's technique, and by a liposuctor with a negative pressure adjusted to maintain −680 mmHg. After the collection, half of the sample was treated with coenzyme Q10 dissolved in Lutrol (or another amphipathic molecule) at 10 μM concentration, as reported in previous works (1, 3). The other half of collected sample was treated with Lutrol (or another amphipathic molecule) alone. Both samples were then -centrifuged. The interphase and cell pellet were collected, following Coleman's technique (6) and maintained in liquid Nitrogen.
(§3) Preparation of protein cell lysates (6) is a modification of the -method described by Rioux (7).
(§4) Liposucted cell suspensions were centrifuged at 800 g for 10 minutes. 1 ml of lysis buffer (0.75 M NaCl, 10 mM HEPES, 1 mM EDTA, 1% Triton-X-100) containing a protease inhibitor mixture (final concentrations 1 μg/ml leupeptin, 10 μg/ml benzamidine, 1 μg/ml chymostatin, 1 μg/ml pepstatin A and 100 μg/ml PMSF) was added and the cell pellet was sonicated two times successively (20 sec, 100 W) to obtain whole cellular lysate. The lysate was further cleared by centrifugation at 10.000 g for 30 min in mini centrifuge. After removing the fat layer and the pellet of cellular debris, the protein content was quantified with Bradford reagent by spectrophotometry. Protein lysates (30 μg/lane) were separated by SDS-PAGE (10 and 15%) and analysed by Western blot analysis with specific antibodies.
(§5) Quantification of apoptotic factors was performed by densitometry.

[2] = test system: caspase 9; assay: Quantification of caspase 9 in adipocytes by Western blotting and densitometry; format: cell-based, human
Procedure: as §1, §2, §3, §4, §5

[3] = test system: cytochrome C; assay: Dosage of cytoplasmic cytochrome C in adipocytes by Western blotting; format: cell-based, human; settings: liposucted adipocytes, Western blot (FIG. 1)
Procedure: as §1, §2, §3
Liposucted cell suspensions were centrifuged at 800 g for 10 minutes. […] After removing the fat layer and the pellet of cellular debris, the protein content was quantified with Bradford reagent by spectrophotometry. Protein lysates (30 μg/lane) were separated by SDS-PAGE (10 and 15%) and analysed by Western blot analysis with specific antibodies.
as §5

[4] = test system: skin grafts; assay: Apoptotic cells in skin grafts (Hoechst staining / in situ TUNEL); format: cell-based, human
Procedure: FIG. 4. Appearance of skin grafts untreated or treated with coenzyme Q10 and stained with in situ TUNEL.
FIG. 5. Number of apoptotic cells in skin grafts untreated or treated with coenzyme Q10 and stained with in situ TUNEL. Values are expressed as percentage of total cells (living+dead cells).
Isolated adipocytes in suspension were fixed with 4% paraformaldehyde for 20 min at RT (room temperature), washed 3 times with PBS and permeabilized for 5 min with 0.25% Triton X-100 in PBS solution. Washes with PBS were repeated 3 times for 5 min each time and the cells were stained with Hoechst 33258 (Sigma) nuclear dye for 30 min at 37° C. followed by washing in PBS 3 times for 5 min.
(§6) The stained cells (10^4) were affixed to polylysine-treated glass slides by gentle cyto-centrifugation or by spreading the cellular film directly on the surface, of the glass slide and mounted. Nuclear staining was examined under Nikon fluorescence microscope (20× and 40× magnification) equipped with camera. The results are expressed as the percentage of apoptotic cells (number of apoptotic cells/100 counted cells) in 10 random fields, performed by 3 independent observers.

[5] = test system: adipocytes; assay: Apoptotic events in adipocytes from explanted tissues; format: cell-based, human; settings: adipocytes maintained in the presence of coenzyme Q10
Procedure: Isolation of Adipocytes from Adipose Tissue
Modification of protocol described by Flower et al., Cytokine 21 (2003) 32-37.
For isolation, adipocyte tissue was quickly thawed, dissected with scissors into fine fragments in-digest solution consisting of Hank's buffer, supplemented with 2 mg/ml of collagenase (Type II, Sigma) and 1.5% BSA, and incubated at 37° C. for 1 hour in shaker-heater bath. The ratio of digest solution to adipose tissue was 4:1. The tissue digest was filtered through 200 μm Nylon mesh fabric in order to remove non digested tissue fragments. The adipocyte-containing layer and free oil were separated from the resulting stromovascular cell suspension by repeated centrifugation at 250×g for 5 minutes at 4° C. All the cells retrieved were morphologically typical mature adipocytes.
Detection of Apoptotic Adipocytes by Hoechst Staining […]
as §6

[6] = test system: cultured keratocytes; settings: excimer laser irradiation; cited from earlier work
[7] = test system: mitochondrial Permeability Transition Pore (mPTP); settings: in response to any apoptotic stimulus; cited from earlier work
[8] = adipocytes collected manually (Luer-lock syringe) and by liposuctor, 10 μM in Lutrol, vs untreated samples
[9] = adipocytes collected with Coleman's technique, added prior to centrifugation and purification
[10] = cells from explanted tissues after ex vivo treatments, in the presence of coenzyme Q10

## COC1=C(OC)C(=O)C(C/C=C(\C)CC/C=C(\C)CC/C=C(\C)CC/C=C(\C)CC/C=C(\C)CC/C=C(\C)CC/C=C(\C)CC/C=C(\C)CC/C=C(\C)CCC=C(C)C)=C(C)C1=O [coenzyme Q10, 2.3-dimethoxy-5-methyl-6-multiprenyl-1.4-benzoquinone]
[1]; [8]
  reduction of caspase 3 activity compared to controls (FIG. 2): ~50%
[1]; [9]
  caspase 3 activity evaluated by Western blotting: dramatically reduced
[1]; [10]
  reduction of caspase 3 level: more than 50%
[2]; [8]
  reduction of caspase 9 activity compared to controls (FIG. 2): ~50%
[2]; [9]
  caspase 9 activity evaluated by Western blotting: dramatically reduced
[2]; [10]
  reduction of caspase 9 level: more than 50%
[3]
  translocation of cytochrome C to cytosol: significantly inhibited
[4]; cutaneous cells maintained in the presence of coenzyme Q10
  number of apoptotic events: significantly reduced
[4]; skin graft, glass slides of treated vs non treated cells (FIG. 4)
  percentage of apoptotic cells: dramatically lower
[4]; skin graft, treated cells, non treated cells showed nuclear condensation and fragmentation
  cell morphology: normal morphology of a living cell
[4]; skin grafts immersed in coenzyme Q10-saline solution (FIG. 5)
  number of apoptotic cells: drastically decreased
[5]
  number of apoptotic events: significantly reduced
[6]
  apoptosis: able to inhibit apoptosis
[7]
  disruption of mitochondrial transmembrane electrochemical gradient and opening of mPTP: directly inhibits
